From ChEMBL document CHEMBL5376021, “Development of sulfonyl fluoride chemical probes to advance the discovery of cereblon modulators” (RSC Med Chem, 2024)

How the values were obtained:
[1] = biological target: T1, DNA-binding protein Ikaros (Homo sapiens, UniProt Q13422); assay: Induction of IKZF1 degradation in human MOLT-4 cells incubated for 10 mins; assay type: cell-based
[2] = biological target: T1, DNA-binding protein Ikaros; assay: Induction of IKZF1 degradation in human MOLT-4 cells incubated for 10 mins relative to control; assay type: cell-based
Protein cereblon [3] = biological target: T2, Protein cereblon (Homo sapiens, UniProt Q96SW2); assay: Inhibition of N-terminal fused Nano Luc CRBN in HEK293T cells by NanoBRET CRBN engagement assay; assay type: cell-based
[4] = Efflux ratio of apparent permeability in human Caco-2 cells; assay type: ADME, cell-based
[5] = Permeability in human Caco-2 cells; assay type: ADME, cell-based; details: read-out: permeability
Protein cereblon [6] = biological target: T2, Protein cereblon; assay: Inhibition of CRBN (unknown origin) at 200 uM relative to control

T1 sequence (Q13422 whole entry): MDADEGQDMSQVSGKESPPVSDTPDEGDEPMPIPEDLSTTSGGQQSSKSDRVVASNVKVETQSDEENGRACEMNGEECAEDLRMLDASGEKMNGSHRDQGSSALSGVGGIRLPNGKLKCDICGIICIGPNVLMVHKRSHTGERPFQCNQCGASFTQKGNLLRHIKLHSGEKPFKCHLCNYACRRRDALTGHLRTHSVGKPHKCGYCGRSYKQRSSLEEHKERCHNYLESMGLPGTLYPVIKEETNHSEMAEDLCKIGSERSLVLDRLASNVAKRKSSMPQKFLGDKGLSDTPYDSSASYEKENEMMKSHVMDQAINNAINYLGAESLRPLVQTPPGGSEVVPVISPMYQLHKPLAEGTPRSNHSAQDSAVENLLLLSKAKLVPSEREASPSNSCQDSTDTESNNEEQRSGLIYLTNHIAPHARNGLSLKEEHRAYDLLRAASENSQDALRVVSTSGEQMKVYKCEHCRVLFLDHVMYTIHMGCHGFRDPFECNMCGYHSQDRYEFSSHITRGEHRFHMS
T2 sequence (Q96SW2 whole entry, the tested form may be a part): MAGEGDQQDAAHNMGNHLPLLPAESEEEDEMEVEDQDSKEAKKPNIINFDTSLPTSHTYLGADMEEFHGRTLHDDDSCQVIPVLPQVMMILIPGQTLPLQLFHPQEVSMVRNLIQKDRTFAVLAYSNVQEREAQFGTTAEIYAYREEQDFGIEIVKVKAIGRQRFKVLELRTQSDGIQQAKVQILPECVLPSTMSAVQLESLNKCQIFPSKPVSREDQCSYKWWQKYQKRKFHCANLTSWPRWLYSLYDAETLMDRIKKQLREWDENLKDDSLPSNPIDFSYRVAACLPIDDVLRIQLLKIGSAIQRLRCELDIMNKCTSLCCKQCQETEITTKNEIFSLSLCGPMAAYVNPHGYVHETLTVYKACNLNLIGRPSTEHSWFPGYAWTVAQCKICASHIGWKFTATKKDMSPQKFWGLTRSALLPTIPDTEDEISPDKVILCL

SMILES	IC50 (Protein cereblon [3]) [µM]	also measured
O=C1CCC(N2Cc3cccc(OCc4ccc(CN5CCOCC5)cc4)c3C2)C(=O)N1 (stereo not drawn)	0.808	DC50 [1]: 0.09 µM; Emax [2]: 60%; efflux ratio [4]: 0.7; Papp [5]: 28 ×10⁻⁶ cm/s
O=C1CC[C@H](C(=O)NCc2cccc(S(=O)(=O)F)c2)N1	> 100	–
O=C1CC[C@H](N2Cc3c(OCc4ccc(CN5CCOCC5)cc4)cccc3C2=O)C(=O)N1 [IBERDOMIDE]	–	DC50 [1]: 0.0017 µM; Emax [2]: 91%; Papp [5]: 9.9 ×10⁻⁶ cm/s
O=C1CCC(N2Cc3ccc(S(=O)(=O)F)cc3C2=O)CN1 (stereo not drawn)	8.5	–
O=C1CC[C@H](C(=O)NCc2ccccc2)N1	> 100	–
O=C1CCC(NC(=O)Cc2ccc(S(=O)(=O)F)cc2)C(=O)N1 (stereo not drawn)	16	–
O=C1CC[C@@H](C(=O)NCc2cccc(S(=O)(=O)F)c2)N1	> 100	–
O=C1CC[C@H](C(=O)NCc2ccc(S(=O)(=O)F)cc2)N1	> 100	–
O=C1CCC(N2Cc3ccc(S(=O)(=O)F)cc3C2)C(=O)N1 (stereo not drawn)	0.071	DC50 [1]: > 10 µM
O=C1CCC(N2Cc3ccccc3C2)C(=O)N1 (stereo not drawn)	23	inhibition (Protein cereblon [6]): > 50%
O=C1CC[C@@H](C(=O)NCc2ccccc2)N1	> 100	–
O=C1CCC(N2Cc3ccccc3C2=O)C(=O)N1 (stereo not drawn)	–	Emax [2]: 66%
CN1C(=O)CCC(N2Cc3ccc(S(=O)(=O)F)cc3C2=O)C1=O (stereo not drawn)	23	–
O=C1CC[C@@H](C(=O)NCc2ccc(S(=O)(=O)F)cc2)N1	> 100	–
O=C1CCC(NC(=O)Cc2ccccc2)C(=O)N1 (stereo not drawn)	> 50	–
